Assay results reported in publication PMC6278394, “Screening of Angiotensin-I Converting Enzyme Inhibitory Peptides Derived from Caulerpa lentillifera” (Molecules, 2018).
Ends that are not written are not given here.

How the values were obtained:
[1] = target: T1, ACE (EC 3.4.15.1) from rabbit lungs (Oryctolagus cuniculus, UniProt P12822); test: pre-incubation experiment of ACEI peptide with ACE (stability towards ACE, inhibitor type); assay type: biochemical; details: peptide 100 µM; for ACE inhibition activity without pre-incubation: before pre-incubation with ACE; for ACE inhibition activity after pre-incubation: pre-incubated with ACE (0.05 mU/µL) 3 h at 37 °C, then HHL 2.5 mM 1 h at 37 °C
T1 construct: ACE (EC 3.4.15.1) from rabbit lungs; purchased Sigma Chemical Co. (St. Louis, MO, USA); host or cells: rabbit lung tissue
T1 sequence (P12822 34-1310): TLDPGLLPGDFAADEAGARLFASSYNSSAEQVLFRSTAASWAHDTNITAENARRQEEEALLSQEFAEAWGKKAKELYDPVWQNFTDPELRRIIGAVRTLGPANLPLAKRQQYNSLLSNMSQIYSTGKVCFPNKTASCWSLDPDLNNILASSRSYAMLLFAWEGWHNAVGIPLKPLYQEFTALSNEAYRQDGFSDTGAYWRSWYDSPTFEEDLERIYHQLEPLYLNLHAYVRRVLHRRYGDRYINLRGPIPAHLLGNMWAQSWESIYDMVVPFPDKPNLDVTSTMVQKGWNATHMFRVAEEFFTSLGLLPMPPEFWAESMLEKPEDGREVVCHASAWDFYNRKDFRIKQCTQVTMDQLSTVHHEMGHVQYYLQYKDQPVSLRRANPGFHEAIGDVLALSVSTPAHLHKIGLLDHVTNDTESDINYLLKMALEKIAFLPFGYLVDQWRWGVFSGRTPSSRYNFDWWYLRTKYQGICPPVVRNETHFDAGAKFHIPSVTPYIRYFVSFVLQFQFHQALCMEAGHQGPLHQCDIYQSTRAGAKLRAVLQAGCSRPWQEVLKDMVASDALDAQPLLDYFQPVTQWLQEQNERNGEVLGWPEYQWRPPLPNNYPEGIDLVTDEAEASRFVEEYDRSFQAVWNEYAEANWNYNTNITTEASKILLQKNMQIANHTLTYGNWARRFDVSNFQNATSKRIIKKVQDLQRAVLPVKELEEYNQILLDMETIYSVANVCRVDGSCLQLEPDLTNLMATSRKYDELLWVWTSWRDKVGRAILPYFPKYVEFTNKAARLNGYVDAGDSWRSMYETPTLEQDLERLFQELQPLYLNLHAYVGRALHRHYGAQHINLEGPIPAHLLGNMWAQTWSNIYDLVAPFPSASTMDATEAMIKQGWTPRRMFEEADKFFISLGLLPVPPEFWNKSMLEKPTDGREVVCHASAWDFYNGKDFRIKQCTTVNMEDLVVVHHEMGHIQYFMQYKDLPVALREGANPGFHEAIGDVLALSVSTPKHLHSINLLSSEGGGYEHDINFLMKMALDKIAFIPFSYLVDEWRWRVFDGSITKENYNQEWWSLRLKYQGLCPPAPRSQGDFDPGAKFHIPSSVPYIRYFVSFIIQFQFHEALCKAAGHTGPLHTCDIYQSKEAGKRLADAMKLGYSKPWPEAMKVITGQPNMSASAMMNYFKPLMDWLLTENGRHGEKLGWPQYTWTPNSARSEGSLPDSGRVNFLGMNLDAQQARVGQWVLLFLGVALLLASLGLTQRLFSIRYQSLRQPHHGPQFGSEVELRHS
Procedure: Since ACE is a dipeptidyl-carboxypeptidase, whether the ACEI peptides will be cleaved by ACE is a critical issue for an in vivo application. Pre-incubation of ACEI peptides with ACE before adding substrate is often used to monitor the reactivity between ACE and the ACEI peptide.
The stability of ACEI peptides towards peptidase ACE was determined according to the method described by Ruiz et al.. Briefly, ACEI peptide (at 100 µM) in 10 µL of deionized water was incubated with 20 µL of ACE (0.05 mU/µL) for 3 h at 37 °C. After that, 30 µL of 2.5 mM HHL was added and the reaction mixture was incubated at 37 °C for 1 h. The reaction was stopped by adding 60 µL 1 N HCl, and the inhibition degree of the peptide was calculated as in Section 3.5.

[2] = target: T1, ACE (EC 3.4.15.1) from rabbit lungs; test: in vitro ACE inhibitory assay (HHL substrate, hippuric acid by RP-HPLC); assay type: biochemical; details: synthetic peptide; HHL 2.5 mM, borate buffer pH 8.3, 37 °C, HPLC read-out at 228 nm; triplicate, nonlinear regression (Graphpad Prism 6.0)
Procedure: The ACEI activity assay was performed according to a previous report with a slight modification. For each assay, 30 µL 2.5 mM Hippuryl-L-histidyl-L-leucine (HHL) was used as a substrate and added by 10 µL of testing sample (peptides) at a certain concentration in 200 mM borate buffer containing 300 mM NaCl (adjusted to pH 8.3). Blank sample using 10 µL of borate buffer and was added by the same substrate. The positive control was 10 µL of 10 µM captopril. All samples were pre-incubated at 37 °C for 5 min. Subsequently, 20 µL of ACE (0.05 mU/µL) in 200 mM borate buffer was added to the blank sample, positive control and testing sample. The reaction was incubated statically at 37 °C for 30 min and then incubated thermostatically using shaker incubation (200 rpm) at 37 °C for 30 min. […] The HHL and ACE’s hydrolyzed product, hippuric acid (HA), were quantitatively analyzed using HPLC equipped with a C18 column. […] The result of HA was detected by UV detector at 228 nm. The ACE inhibition (%) was determined according to the following equation:ACE Inhibition (%) = [1 − (ΔAInhibitor/ΔABlank)] × 100
Here, ΔAInhibitor and ΔABlank were the peak areas of HA in testing and blank samples, respectively. […] The IC50 was determined using Graphpad Prism 6.0 (GraphPad Software, Inc., La Jolla, CA, USA) by a nonlinear regression of ACE inhibition result (%) caused by different concentrations of inhibitor.

Substance | decrease of inhibition activity after pre-incubation ([1]; 3 h pre-incubation with ACE at 37 °C) | ACE inhibition activity without pre-incubation [1] [%] | ACE inhibition activity after pre-incubation [1] [%] | IC50 [2] [µM]
AIDPVRA [AA-7] | about 10% | 68.07 | 57.89 | 65.8 ± 0.92
FDGIP [FP-5] | – | 78.89 | 76.47 | 58.9 ± 0.68
